Assay results as given in patent US20100093764A1, “AMINES AND SULFOXIDES OF THIENO[2,3-d]PYRIMIDINE AND THEIR USE AS ADENOSINE A2a RECEPTOR ANTAGONISTS” (priority 2008, published 2010).
Structures can show the parent of a compound that is named as a salt.

What was measured:
[1] = target: T1, human adenosine A1 receptor (Homo sapiens, UniProt P30542); assay: Adenosine A1 Receptor Functional Assay (A1GAL2); format: cell-based; settings: CHO-K1 cells overexpressing human A1 receptor, cAMP inducible beta-galactosidase reporter, 4 nM r-PIA/1 uM Forskolin agonist challenge
T1 construct: expressed in transfected cells; host or cells: CHO-K1 cells with a cAMP inducible beta-galactosidase reporter gene
T1 sequence (P30542 1-326): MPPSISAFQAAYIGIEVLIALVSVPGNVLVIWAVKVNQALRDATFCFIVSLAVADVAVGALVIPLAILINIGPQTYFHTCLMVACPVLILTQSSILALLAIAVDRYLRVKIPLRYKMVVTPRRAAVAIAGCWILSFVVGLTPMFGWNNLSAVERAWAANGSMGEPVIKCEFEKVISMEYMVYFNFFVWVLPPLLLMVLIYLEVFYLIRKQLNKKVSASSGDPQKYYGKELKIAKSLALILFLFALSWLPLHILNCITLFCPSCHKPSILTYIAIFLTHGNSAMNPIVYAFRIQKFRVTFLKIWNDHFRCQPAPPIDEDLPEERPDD
Method: Adenosine A1 Receptor Functional Assay (A1GAL2)
(§1) To initiate the functional assay, cryopreserved CHO—K1 cells overexpressing the human adenosine A1 receptor and containing a cAMP inducible beta-galactosidase reporter gene were thawed, centrifuged, DMSO containing media removed, and then seeded with fresh culture media into clear 384-well tissue culture treated plates (BD #353961) at a concentration of 10K cells/well. Prior to assay, these plates were cultured for two days at 37° C., 5% CO2, 90% Rh. On the day of the functional assay, culture media was removed and replaced with 45 uL assay medium (Hams/F-12 Modified (Mediatech #10-080CV) supplemented w/0.1% BSA). Test compounds were diluted and 11 point curves created at a 1000× concentration in 100% DMSO. Immediately after addition of assay media to the cell plates, 50 nL of the appropriate test compound antagonist or agonist control curves were added to cell plates using a Cartesian Hummingbird. Compound curves were allowed to incubate at room temperature on cell plates for approximately 15 minutes before addition of a 4 nM r-PIA (Sigma P4532)/1 uM Forskolin (Sigma F3917) agonist challenge (5 uL volume). A control curve of r-PIA in 1 uM Forskolin, a DMSO/Media control, and a single dose of Forskolin were also included on each plate. After additions, cell plates were allowed to incubate at 37° C., 5% CO2, 90% Rh for 5.5-6 hours. After incubation, media was removed, and cell plates were washed 1× 50 uL with DPBS w/o Ca & Mg (Mediatech 21-031-CV). Into dry wells, 20 uL of 1× Reporter Lysis Buffer (Promega E3971 (diluted in dH2O from 5× stock)) was added to each well and plates frozen at −20° C. overnight. For β-galactosidase enzyme calorimetric assay, plates were thawed out at room temperature and 20 μL 2× assay buffer (Promega) was added to each well. Color was allowed to develop at 37° C., 5% CO2, 90% Rh for 1-1.5 h or until reasonable signal appeared. The calorimetric reaction was stopped with the addition of 60 μL/well 1M sodium carbonate. Plates were counted at 405 nm on a SpectraMax Microplate Reader (Molecular Devices). Data was analyzed in Microsoft Excel and IC/EC50 curves were fit using a standardized macro.

[2] = target: T2, human adenosine A2a receptor (Homo sapiens, UniProt P29274); assay: Adenosine A2a Receptor Functional Assay (A2AGAL2); format: cell-based; settings: CHO-K1 cells overexpressing human A2a receptor, cAMP inducible beta-galactosidase reporter, 15 nM NECA agonist challenge
T2 construct: expressed in transfected cells; host or cells: CHO-K1 cells with a cAMP inducible beta-galactosidase reporter gene
Method: Adenosine A2a Receptor Functional Assay (A2AGAL2)
as §1, with “adenosine A2a” for “adenosine A1”, “a 15” for “a 4”, “nM NECA” for “nM r-PIA”, “(Sigma E2387)” for “(Sigma P4532)/1 uM Forskolin (Sigma F3917)”, “of NECA,” for “of r-PIA in 1 uM Forskolin,”, “Forskolin (Sigma F3917)” for “Forskolin”

T2 sequence (P29274 whole entry): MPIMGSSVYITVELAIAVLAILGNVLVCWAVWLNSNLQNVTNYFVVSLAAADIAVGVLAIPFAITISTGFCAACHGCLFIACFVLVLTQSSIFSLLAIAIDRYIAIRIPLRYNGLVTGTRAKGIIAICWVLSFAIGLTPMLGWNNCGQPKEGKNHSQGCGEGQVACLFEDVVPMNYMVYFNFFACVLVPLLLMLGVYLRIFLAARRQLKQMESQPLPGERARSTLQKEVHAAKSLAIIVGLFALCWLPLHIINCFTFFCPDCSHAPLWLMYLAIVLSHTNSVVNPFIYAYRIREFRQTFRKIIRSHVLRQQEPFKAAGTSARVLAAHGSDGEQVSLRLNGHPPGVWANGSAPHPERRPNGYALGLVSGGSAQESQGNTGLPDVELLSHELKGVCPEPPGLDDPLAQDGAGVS

| Compound | Ki [1] [nM] | Ki [2] [nM] |
| --- | --- | --- |
| N#Cc1cccc(-c2nc(N)c3cc(Nc4ccccc4Cl)sc3n2)c1 [Example 7, 3-[4-Amino-6-(2-chloro-phenylamino)-thieno[2,3-d]pyrimidin-2-yl]-benzonitrile-hydrochloride] | 2270 | 230 |
| COc1cccc(N(C)c2cc3c(N)nc(-c4cccc(C#N)c4)nc3s2)c1 [Example 9, 3-{4-Amino-6-[(3-methoxy-phenyl)-methyl-amino]-thieno[2,3-d]pyrimidin-2-yl}-benzonitrile-hydrochloride] | 2540 | 273 |
| COc1cccc(Nc2cc3c(N)nc(-c4cccc(C#N)c4)nc3s2)c1 [Example 6, 3-[4-Amino-6-(3-methoxy-phenylamino)-thieno[2,3-d]pyrimidin-2-yl]-benzonitrile-hydrochloride] | 2370 | 261 |
| COc1ccccc1Nc1cc2c(N)nc(-c3cccc(C#N)c3)nc2s1 [Example 2, 3-[4-Amino-6-(2-methoxy-phenylamino)-thieno[2,3-d]pyrimidin-2-yl]-benzonitrile] | 269 | 11.4 |
| CN(c1cccc(F)c1)c1cc2c(N)nc(-c3cccc(C#N)c3)nc2s1 [Example 11, 3-{4-Amino-6-[(3-fluoro-phenyl)-methyl-amino]-thieno[2,3-d]pyrimidin-2-yl}-benzonitrile] | 5230 | 398 |
| CN(c1cc2c(N)nc(-c3cccc(C#N)c3)nc2s1)c1ccccc1Cl [Example 8, 3-{4-Amino-6-[(2-chloro-phenyl)-methyl-amino]-thieno[2,3-d]pyrimidin-2-yl}-benzonitrile] | 2770 | 316 |
| CN(c1ccccc1)c1cc2c(N)nc(-c3cccc(C#N)c3)nc2s1 [Example 5, 3-[4-Amino-6-(methyl-phenyl-amino)-thieno[2,3-d]pyrimidin-2-yl]-benzonitrile] | 2330 | 127 |
| COc1ccccc1N(C)c1cc2c(N)nc(-c3cccc(C#N)c3)nc2s1 [Example 3, 3-{4-Amino-6-[(2-methoxy-phenyl)-methyl-amino]-thieno[2,3-d]pyrimidin-2-yl}-benzonitrile] | 569 | 103 |
| N#Cc1cccc(-c2nc(N)c3cc(Nc4ccccn4)sc3n2)c1 [Example 4, 3-[4-Amino-6-(pyridin-2-ylamino)-thieno[2,3-d]pyrimidin-2-yl]-benzonitrile] | 765 | 84.4 |
| N#Cc1cccc(-c2nc(N)c3cc(Nc4ccccc4F)sc3n2)c1 [Example 10, 3-[4-Amino-6-(2-fluoro-phenylamino)-thieno[2,3-d]pyrimidin-2-yl]-benzonitrile] | 2600 | 131 |
| N#Cc1cccc(-c2nc(N)c3cc(Nc4ccccc4)sc3n2)c1 [Example 1, (4-Amino-6-phenylamino-thieno[2,3-d]pyrimidin-2-yl)-benzonitrile] | 1150 | 89.4 |
| N#Cc1cccc(-c2nc(N)c3cc(S(=O)(=O)c4ccccc4)sc3n2)c1 [Example 12, 3-(4-Amino-6-benzenesulfonyl-thieno[2,3-d]pyrimidin-2-yl)-benzonitrile] | 358 | 15.7 |
